Experimental findings from ChEMBL document CHEMBL5338815 (J Med Chem, 2023) are described below.

Calls of active or inactive are those of the source. No cut-off for these calls is given here.

In data set [1] the target is T1, Histone-lysine N-methyltransferase EHMT2 (Homo sapiens, UniProt Q96KQ7).
T1 sequence (Q96KQ7 whole entry): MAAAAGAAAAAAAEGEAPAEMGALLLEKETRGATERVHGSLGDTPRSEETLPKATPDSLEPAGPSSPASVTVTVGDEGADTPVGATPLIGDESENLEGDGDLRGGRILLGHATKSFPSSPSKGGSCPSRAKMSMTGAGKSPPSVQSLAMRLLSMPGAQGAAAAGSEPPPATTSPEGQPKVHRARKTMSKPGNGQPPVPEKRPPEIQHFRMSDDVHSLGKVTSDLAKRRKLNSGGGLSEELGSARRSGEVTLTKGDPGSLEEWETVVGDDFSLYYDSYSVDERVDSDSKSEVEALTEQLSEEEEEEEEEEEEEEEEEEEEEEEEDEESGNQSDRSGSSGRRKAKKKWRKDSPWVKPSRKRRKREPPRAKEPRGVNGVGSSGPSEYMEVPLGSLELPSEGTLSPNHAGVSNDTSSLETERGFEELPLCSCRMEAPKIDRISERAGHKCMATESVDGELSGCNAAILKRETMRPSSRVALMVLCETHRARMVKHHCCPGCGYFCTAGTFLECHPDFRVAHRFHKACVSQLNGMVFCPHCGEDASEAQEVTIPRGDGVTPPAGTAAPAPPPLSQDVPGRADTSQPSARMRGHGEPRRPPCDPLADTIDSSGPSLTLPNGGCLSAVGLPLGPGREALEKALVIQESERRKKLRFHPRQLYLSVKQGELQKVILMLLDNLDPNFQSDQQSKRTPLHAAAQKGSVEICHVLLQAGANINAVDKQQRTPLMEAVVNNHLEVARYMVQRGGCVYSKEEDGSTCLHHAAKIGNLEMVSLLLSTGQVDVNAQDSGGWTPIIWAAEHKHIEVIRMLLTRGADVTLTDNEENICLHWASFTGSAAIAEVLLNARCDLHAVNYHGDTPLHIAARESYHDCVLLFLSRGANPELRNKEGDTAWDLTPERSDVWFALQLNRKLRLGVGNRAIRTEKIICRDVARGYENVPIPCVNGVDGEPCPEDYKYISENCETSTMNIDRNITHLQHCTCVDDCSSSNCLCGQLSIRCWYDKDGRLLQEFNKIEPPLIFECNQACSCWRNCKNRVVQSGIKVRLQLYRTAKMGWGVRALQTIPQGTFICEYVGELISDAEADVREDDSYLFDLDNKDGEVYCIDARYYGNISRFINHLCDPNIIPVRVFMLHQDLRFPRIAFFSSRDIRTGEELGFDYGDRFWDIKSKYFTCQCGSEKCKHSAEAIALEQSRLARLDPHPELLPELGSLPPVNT
The experiment in a line: Inhibition of G9a (unknown origin) by AlphaLISA assay.

The test system of data set [2] is MDA-MB-231. The experiment in a line: Antiproliferative activity against human MDA-MB-231 cells assessed as cell viability measured after 24 hrs by CCK-8 assay. In kind it is functional, cell-based. Particulars: MDA-MB-231, 24 h. On the technique in general: Formazan colour is commonly taken as a measure of viable cells.
Data set [3] in a line: Metabolic stability in mouse liver microsomes assessed as half life at 0.1 uM measured upto 60 mins by LC-MS/MS analysis. It is filed as ADME, Microsome. For orientation: Microsomes from liver hold many membrane-bound enzymes, among them those of drug oxidation.
Data set [4] relates to PANC-1. The experiment in a line: Antiproliferative activity against human PANC-1 cells assessed as cell viability measured after 24 hrs by CCK-8 assay. Conditions: PANC-1, 24 h. In kind it is functional, cell-based.
Data set [5] addresses T1, Histone-lysine N-methyltransferase EHMT2. The experiment in a line: Inhibition of human recombinant G9a using H3-SAM as substrate.
The target in data set [6] is T2, Histone-lysine N-methyltransferase EHMT1 (Homo sapiens, UniProt Q9H9B1).
T2 sequence (Q9H9B1 whole entry): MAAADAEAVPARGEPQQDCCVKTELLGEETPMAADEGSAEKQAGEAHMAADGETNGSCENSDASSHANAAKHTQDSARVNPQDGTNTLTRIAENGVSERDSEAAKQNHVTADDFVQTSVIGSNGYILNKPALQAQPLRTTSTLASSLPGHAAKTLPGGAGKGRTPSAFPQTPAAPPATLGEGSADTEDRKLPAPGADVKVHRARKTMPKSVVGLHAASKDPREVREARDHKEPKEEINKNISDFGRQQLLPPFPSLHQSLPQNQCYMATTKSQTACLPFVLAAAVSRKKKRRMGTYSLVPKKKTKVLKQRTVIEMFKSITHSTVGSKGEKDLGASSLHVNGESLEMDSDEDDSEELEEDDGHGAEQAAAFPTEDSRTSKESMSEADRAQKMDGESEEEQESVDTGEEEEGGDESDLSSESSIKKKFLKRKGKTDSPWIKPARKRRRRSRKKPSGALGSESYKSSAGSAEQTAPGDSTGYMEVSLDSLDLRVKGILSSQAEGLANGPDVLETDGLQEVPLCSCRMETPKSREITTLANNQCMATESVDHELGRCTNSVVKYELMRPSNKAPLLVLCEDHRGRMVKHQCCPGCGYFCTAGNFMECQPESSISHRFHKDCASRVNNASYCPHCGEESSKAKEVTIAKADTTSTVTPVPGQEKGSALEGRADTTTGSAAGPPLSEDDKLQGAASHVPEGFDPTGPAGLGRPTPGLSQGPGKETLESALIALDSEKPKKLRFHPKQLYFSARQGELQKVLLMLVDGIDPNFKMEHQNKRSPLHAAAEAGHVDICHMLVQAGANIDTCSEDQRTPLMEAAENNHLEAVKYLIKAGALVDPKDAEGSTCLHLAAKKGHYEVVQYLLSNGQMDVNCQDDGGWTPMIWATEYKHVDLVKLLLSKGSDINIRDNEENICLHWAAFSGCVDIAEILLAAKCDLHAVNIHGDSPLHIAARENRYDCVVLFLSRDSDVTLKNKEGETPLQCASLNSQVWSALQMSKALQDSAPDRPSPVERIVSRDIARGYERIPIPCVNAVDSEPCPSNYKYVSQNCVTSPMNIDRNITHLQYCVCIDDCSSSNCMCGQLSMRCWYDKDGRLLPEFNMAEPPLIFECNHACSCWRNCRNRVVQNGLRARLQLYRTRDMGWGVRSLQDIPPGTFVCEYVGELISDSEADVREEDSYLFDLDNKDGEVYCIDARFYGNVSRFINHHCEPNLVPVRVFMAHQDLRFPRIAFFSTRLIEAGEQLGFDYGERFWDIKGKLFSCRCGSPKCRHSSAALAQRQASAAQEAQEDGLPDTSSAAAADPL
The data set can be described thus: Inhibition of GLP (unknown origin).

For data set [7], the system named is MDA-MB-231. The experiment in a line: Reduction in H3K9me2 level in human MDA-MB-231 cells at 10 uM by Western blot analysis. In kind it is functional, cell-based. Particulars: time 24-96 hrs, TDE = time-dependent effect.
Data set [8] addresses T3, Histone-lysine N-methyltransferase EHMT2 (Homo sapiens) (UniProt Q96KQ7).
T3 sequence (whole entry): T1 sequence (Q96KQ7 whole entry)
The experiment in a line: Binding affinity to G9a in human MDA-MB-231 cells assessed as protein stabilization at 37 to 41.7 degC at 10 uM incubated for 15 hrs in presence of G9a antibody by CETSA. It is filed as cell-based.

Data set [9] relates to MDA-MB-231. The data set can be described thus: Reduction in H3K9me2 level in human MDA-MB-231 cells at 10 uM incubated for 48 hrs followed replaced with fresh medium measured after 24 hrs by Western blot analysis. In kind it is functional, cell-based. On the technique in general: Immunoblotting shows a protein as a band on a membrane.

`CCC(=O)NCc1nc(NC2CCN(C)CC2)c2cc(OC)c(OCCCN3CCCC3)cc2n1` gave an IC50 in data set [1] of 64 nM.
Consider `C=CC(=O)N(C)c1nc(NC2CCN(Cc3ccccc3)CC2)c2cc(OC)c(OCCCN3CCCC3)cc2n1`, for which the IC50 in [1] is 5.9 nM; in [2], 0.46 µM; in [4] it was 0.52 µM. Besides, the half-life at 0.1 µM in data set [3] came out at 4.72 min.
In the case of `C=CC(=O)N(C)c1nc(NCC2CCN(C)CC2)c2cc(OC)c(OCCCN3CCCC3)cc2n1`, the IC50 in data set [1] is 11 nM; in data set [2] it was over 40 µM; in data set [4] it was over 40 µM.
The compound `C/C=C/C(=O)NCc1cc(NC2CCN(C)CC2)c2cc(OC)c(OCCCN3CCCC3)cc2n1` had an IC50 in data set [1] of 0.52 nM.
Still for that read-out and setting: the figure for `COc1cc2c(NC3CCN(C)CC3)nc(CNC(=O)CC#N)nc2cc1OCCCN1CCCC1` is 80 nM.
`CC#CC(=O)NCc1nc(NC2CCN(C)CC2)c2cc(OC)c(OCCCN3CCCC3)cc2n1` gave an IC50 in [1] of 95 nM.
On the same count and under the same terms, the figure for `CCC(=O)NCc1cc(NC2CCN(C)CC2)c2cc(OC)c(OCCCN3CCCC3)cc2n1` is 0.71 nM.
As to `C=CC(=O)N(C)c1nc(NC2CCN(C(C)C)CC2)c2cc(OC)c(OCCCN3CCCC3)cc2n1`, the IC50 in data set [1] was 4.4 nM; in [2] it was 9.6 µM; in data set [4], 8.22 µM.
As to `CNc1nc2cc(OCCCN3CCCC3)c(OC)cc2n1C(C)C`, the concentration for half-maximal inhibition (IC50) in [5] and in [6] was under 100 nM in each case.
Regarding `C=CC(=O)NCc1nc(NC2CCN(C)CC2)c2cc(OC)c(OCCCN3CCCC3)cc2n1`, inhibition in data set [1] was half-maximal at 60 nM (IC50).
Still for that read-out and setting: then `C=C(C)C(=O)NCc1nc(NC2CCN(C)CC2)c2cc(OC)c(OCCCN3CCCC3)cc2n1`, with 116 nM; and `CC#CC(=O)NCc1cc(NC2CCN(C)CC2)c2cc(OC)c(OCCCN3CCCC3)cc2n1`, with 0.42 nM; and `C=CC(=O)NCc1cc(NC2CCN(C)CC2)c2cc(OC)c(OCCCN3CCCC3)cc2n1`, with 0.49 nM.
Same read-out and setting: the figure for `COc1cc2c(NC3CCN(C)CC3)cc(CNC(=O)CCl)nc2cc1OCCCN1CCCC1` is 1.7 nM.
Take `C=CC(=O)N(C)c1nc(NC2CCN(C3CCCCC3)CC2)c2cc(OC)c(OCCCN3CCCC3)cc2n1`: the IC50 in [1] amounted to 3.51 nM; in data set [2] it was 2.23 µM; in data set [4], 2.44 µM. Further, the half-life at 0.1 µM in data set [3] came to 10 min.
`COc1cc2c(NC3CCN(C)CC3)nc(CNC(=O)/C=C/CN(C)C)nc2cc1OCCCN1CCCC1` displayed an IC50 in data set [1] of 7.6 nM.
Still for that read-out and setting: then `COc1cc2c(NC3CCN(C)CC3)nc(CNC(=O)CCl)nc2cc1OCCCN1CCCC1`, with 5.7 nM.
Take `COc1cc2c(NC3CCN(C)CC3)nc(CNC(=O)C3(C#N)CC3)nc2cc1OCCCN1CCCC1`: in [1], 111 nM corresponded to half-maximal inhibition (IC50).
On the same count and under the same terms, then `C=C(C)C(=O)NCc1cc(NC2CCN(C)CC2)c2cc(OC)c(OCCCN3CCCC3)cc2n1`, with 0.53 nM.
Take `CCC(=O)N(C)c1nc(NC2CCN(C)CC2)c2cc(OC)c(OCCCN3CCCC3)cc2n1`: the inhibition entry in [7] was “Tde”. In [8], the outcome was Active. In addition, the half-inhibitory concentration (IC50) is 5.8 nM in data set [1], 9.73 µM in data set [2] and 14.8 µM in data set [4]. In addition, the inhibition entry in data set [9] was “inactive”.
On to `C=CC(=O)N(C)c1nc(NC2CCN(CCC)CC2)c2cc(OC)c(OCCCN3CCCC3)cc2n1`, for which the IC50 was determined as 3.9 nM in [1], 5.48 µM in data set [2] and 4.75 µM in [4].
With `C/C=C/C(=O)NCc1nc(NC2CCN(C)CC2)c2cc(OC)c(OCCCN3CCCC3)cc2n1`, the IC50 in [1] amounted to 74 nM.

One may read the IC50 as the point on the concentration scale where inhibition reaches its midpoint. As usually defined, the half-life is how long it takes for the measured level to halve.
